Numbered stars: 1 amine (or outer) side, 2 acyl side, 3 side chain; on linkers, the order of the positions; unused ones are H or OH. Bridge positions count the residues as written; N and C are the ends. Square brackets hold non-standard residues; d marks the D form. Peptide text beside a SMILES is read from it. Trp(5-F) = N[C@@H](Cc1c[nH]c2ccc(F)cc12)C(=O)O; X3 = O=C(CCSCc1cc(F)cc(CSCCN[*:1])c1)[*:2]; mXylylene = c1cc(C[*:1])cc(C[*:2])c1; αMeP = C[C@@]1(C(=O)O)CCCN1; Mpa = O=C(O)CCS
Tests used:
[1] = target: Chymotrypsin-like elastase family member 1 (Sus scrofa, UniProt P00772); assay: Enzymatic stability assessed as porcine type 4 pancreatic elastase-mediated compound hydrolysis by measuring parent compound remaining at 100 uM incubated for 1 hr by LC-MS/MS analysis; assay type: ADME; settings: pig, read-out: Stabilty
Chain of Chymotrypsin-like elastase family member 1 (P00772 whole entry): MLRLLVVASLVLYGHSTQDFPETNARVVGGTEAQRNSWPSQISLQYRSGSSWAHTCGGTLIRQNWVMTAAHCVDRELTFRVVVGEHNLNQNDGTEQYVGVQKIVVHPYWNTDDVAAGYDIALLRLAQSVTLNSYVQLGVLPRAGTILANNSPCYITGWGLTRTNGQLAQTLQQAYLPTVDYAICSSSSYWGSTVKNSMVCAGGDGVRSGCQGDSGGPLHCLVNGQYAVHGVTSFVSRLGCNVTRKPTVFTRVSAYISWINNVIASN

[2] = Enzymatic stability assessed as bovine pancreatic trypsin-mediated compound hydrolysis by measuring parent compound remaining at 100 uM incubated for 1 hr by LC-MS/MS analysis; assay type: ADME, Bos taurus; settings: cattle, read-out: Stabilty
[3] = Enzymatic stability assessed as porcine pepsin-mediated compound hydrolysis by measuring parent compound remaining at 100 uM incubated for 1 hr by LC-MS/MS analysis; assay type: ADME, Sus scrofa; settings: pig, read-out: Stabilty
[4] = target: Proprotein convertase subtilisin/kexin type 9 (Homo sapiens, UniProt Q8NBP7); assay: Inhibition of AlexaFluor647-tagged cyclic peptide binding to avi-tagged-biotinylated human PCSK9 measured after 2 hrs by Lance Streptavidin Europium based FRET assay
Chain of Proprotein convertase subtilisin/kexin type 9 (Q8NBP7 31-152 limits assumed): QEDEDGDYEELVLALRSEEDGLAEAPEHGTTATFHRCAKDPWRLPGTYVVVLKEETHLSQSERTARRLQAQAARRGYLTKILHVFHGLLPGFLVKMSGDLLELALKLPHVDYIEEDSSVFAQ
Chain of Proprotein convertase subtilisin/kexin type 9 (Q8NBP7 153-692 limits assumed): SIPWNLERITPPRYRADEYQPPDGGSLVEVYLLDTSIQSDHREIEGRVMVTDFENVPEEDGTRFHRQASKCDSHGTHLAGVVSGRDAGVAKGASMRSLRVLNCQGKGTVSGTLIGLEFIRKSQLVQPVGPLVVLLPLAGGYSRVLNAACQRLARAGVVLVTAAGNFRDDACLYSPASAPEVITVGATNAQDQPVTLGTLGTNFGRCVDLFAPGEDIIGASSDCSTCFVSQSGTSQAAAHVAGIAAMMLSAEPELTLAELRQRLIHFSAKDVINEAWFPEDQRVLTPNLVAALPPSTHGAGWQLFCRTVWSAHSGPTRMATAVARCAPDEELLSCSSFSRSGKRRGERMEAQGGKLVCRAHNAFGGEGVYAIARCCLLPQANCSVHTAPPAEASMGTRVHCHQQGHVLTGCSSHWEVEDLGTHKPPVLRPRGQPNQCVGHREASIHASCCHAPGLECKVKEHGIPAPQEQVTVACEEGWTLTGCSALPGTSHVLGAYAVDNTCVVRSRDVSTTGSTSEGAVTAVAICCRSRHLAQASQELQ

Chymotrypsinogen A = Chymotrypsinogen A (Bos taurus, UniProt P00766); assay: Enzymatic stability assessed as bovine pancreatic alpha-chymotrypsin-mediated compound hydrolysis by measuring parent compound remaining at 100 uM incubated for 1 hr by LC-MS/MS analysis; assay type: ADME; settings: cattle, read-out: Stabilty
[5] = Half life in cynomolgus monkey whole blood at 100 uM by LC-MS/MS analysis; assay type: ADME, tissue-based, Macaca fascicularis
[6] = Half life in C57BL/6 mouse whole blood at 100 uM by LC-MS/MS analysis; assay type: ADME, tissue-based
[7] = Protein binding in mouse plasma at 2.5 uM measured after 4 hrs by equilibrium dialysis based LC-MS/MS analysis; assay type: ADME, cell-free; settings: read-out: PPB (converted)
[8] = Half life in C57BL/6 mouse at 1 mg/kg, iv by LC-MS/MS analysis; assay type: ADME, organism-based; settings: in vivo
[9] = Volume of distribution at steady state in C57BL/6 mouse at 1 mg/kg, iv by LC-MS/MS analysis; assay type: ADME, organism-based; settings: in vivo, read-out: Vdss
[10] = AUC (0 to X) in C57BL/6 mouse at 1 mg/kg, iv by LC-MS/MS analysis; assay type: ADME, organism-based; design: dose 1 mg/kg; settings: in vivo
[11] = AUC (0 to infinity) in C57BL/6 mouse at 1 mg/kg, iv by LC-MS/MS analysis; assay type: ADME, organism-based; design: route intravenous, time infinity, dose 1 mg/kg; settings: in vivo; for AUC(0-inf): C57BL/6, mouse
[12] = Cytotoxicity against Wistar rat isolated peritoneal cells assessed as reduction in cell viability up to 60 uM measured after 30 mins; assay type: cell-based; settings: peritoneal macrophage cell, 0.5 h
[13] = Induction of mast cell degranulation in Wistar rat isolated peritoneal cells assessed as effect on histamine release measured after 30 mins; assay type: tissue-based; settings: Rattus norvegicus, Wistar, Mast cell, 0.5 h; read-out: EC50
[14] = Clearance in C57BL/6 mouse at 1 mg/kg, iv by LC-MS/MS analysis; assay type: ADME, organism-based; settings: in vivo
PCSK9/LDLR = PCSK9/LDLR (Homo sapiens, UniProt Q8NBP7); assay: Inhibition of avi-tagged-biotinylated human PCSK9 interaction with His-tagged human LDLR EGFa domain by LANCE Ulight Streptavidin based TR-FRET assay; assay type: protein assay
Chain of PCSK9/LDLR (Q8NBP7 31-152 limits assumed): as the sequence (Q8NBP7 31-152 limits assumed) above
Chain of PCSK9/LDLR (Q8NBP7 153-692 limits assumed): as the sequence (Q8NBP7 153-692 limits assumed) above
Chain of PCSK9/LDLR (P01130 22-860 partner limits assumed): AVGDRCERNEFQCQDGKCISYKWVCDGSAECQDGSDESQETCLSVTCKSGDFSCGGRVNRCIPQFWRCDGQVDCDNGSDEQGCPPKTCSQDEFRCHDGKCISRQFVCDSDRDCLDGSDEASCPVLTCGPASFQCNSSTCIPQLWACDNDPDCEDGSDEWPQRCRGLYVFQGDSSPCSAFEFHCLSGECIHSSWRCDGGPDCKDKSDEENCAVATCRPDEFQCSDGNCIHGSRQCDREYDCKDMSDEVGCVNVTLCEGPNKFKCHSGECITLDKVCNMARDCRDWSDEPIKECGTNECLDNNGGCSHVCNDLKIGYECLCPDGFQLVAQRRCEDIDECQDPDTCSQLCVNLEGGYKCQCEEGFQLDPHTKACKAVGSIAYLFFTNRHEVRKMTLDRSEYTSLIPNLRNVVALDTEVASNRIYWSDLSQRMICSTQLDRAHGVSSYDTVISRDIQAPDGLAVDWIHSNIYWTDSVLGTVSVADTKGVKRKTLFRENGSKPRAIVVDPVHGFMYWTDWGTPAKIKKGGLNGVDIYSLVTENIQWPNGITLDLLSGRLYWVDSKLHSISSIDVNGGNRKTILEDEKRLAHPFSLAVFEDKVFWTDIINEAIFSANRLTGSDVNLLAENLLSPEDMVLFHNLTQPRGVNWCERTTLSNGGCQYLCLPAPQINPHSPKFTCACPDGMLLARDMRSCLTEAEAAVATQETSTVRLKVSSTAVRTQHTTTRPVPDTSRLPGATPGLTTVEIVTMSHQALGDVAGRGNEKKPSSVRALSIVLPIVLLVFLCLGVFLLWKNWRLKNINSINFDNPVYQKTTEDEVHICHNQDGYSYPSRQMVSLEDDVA

| SMILES | remaining at 1 h, 100 µM [1] [%] | remaining at 1 h, 100 µM [2] [%] | remaining at 1 h, 100 µM [3] [%] | Ki [4] [nM] | remaining at 1 h, 100 µM (Chymotrypsinogen A) [%] | half-life at 100 µM [5] [h] | half-life at 100 µM [6] [h] | fraction unbound at 4 h, 2.5 µM [7] | half-life [8] [h] | Vd [9] [L/kg] | AUC [10] [µM·h] | AUC ([11]; mouse) [µM·h] | Activity [12] | EC50 [13] [nM] | clearance [14] [mL/min/kg] | AUC(0-inf) [11] [µM·h] | Ki (PCSK9/LDLR) [nM] |
| --- | --- | --- | --- | --- | --- | --- | --- | --- | --- | --- | --- | --- | --- | --- | --- | --- | --- |
| COc1ccc(C[C@@H]2NC(=O)[C@H]([C@@H](C)OC)NC(=O)[C@@H]3CCC(=O)NCc4cccc(c4)C[C@H](NC(=O)[C@@H](C)NC(=O)[C@H](C)NC(=O)CCSCc4cccc(c4)CSCCNC(=O)[C@]4(C)CCCN4C2=O)C(=O)N[C@@H](Cc2c[nH]c4ccc(F)cc24)C(=O)N3C)cc1 | 98.8 | 97.6 | 94.4 | 10.6 | 95.7 | > 6 | > 6 |  |  |  |  |  |  |  |  |  |  |
| C[C@H]1NC(=O)[C@H](CCCCN)NC(=O)CCSCc2cccc(c2)CSC[C@@H](C(N)=O)NC(=O)[C@]2(C)CCCN2C(=O)[C@H](Cc2ccc(O)cc2)NC(=O)[C@H]([C@@H](C)O)NC(=O)[C@@H]2C[C@H](F)CN2C(=O)[C@H](Cc2c[nH]c3ccc(F)cc23)NC(=O)[C@H](Cc2c[nH]c3ccc(F)cc23)NC1=O | 100 | 95.9 | 98.1 | 2.1 | 100 |  | > 6 | 0.0167 | 1.6 | 0.37 | 0.171 | 0.17152 | Non-Toxic | 3120 |  |  |  |
| NCCCC[C@@H]1NC(=O)CCSCc2cccc(c2)CSC[C@@H](C(N)=O)NC(=O)[C@@H]2CCCN2C(=O)[C@H](Cc2ccc(O)cc2)NC(=O)[C@H](Cc2c[nH]cn2)NC(=O)[C@H](CC(=O)O)NC(=O)[C@H](Cc2c[nH]c3ccc(F)cc23)NC(=O)[C@H](Cc2c[nH]c3ccc(F)cc23)NC(=O)CNC1=O | 60.7 | 1.2 | 95 |  | 12 |  | 1.05 | 0.0498 | 1.04 | 0.7 | 0.241 |  | Non-Toxic | 6670 | 51.7 | 0.242 | 110 |
| CC(C)[C@H]1NC(=O)[C@H](CCCCN)NC(=O)CCSCc2cccc(c2)CSCCNC(=O)[C@]2(C)CCCN2C(=O)[C@H](Cc2ccc(O)cc2)NC(=O)[C@H](Cc2cnc[nH]2)NC(=O)[C@H](CC(=O)O)NC(=O)[C@H](Cc2c[nH]c3ccc(F)cc23)NC(=O)[C@H](Cc2c[nH]c3ccc(F)cc23)NC1=O | 100 | 94.3 | 100 | 6.3 | 76.4 |  | > 6 | 0.001 | 0.25 | 0.1 | 2.49 |  |  |  | 4.62 | 2.51 | 17.6 |
| CO[C@H](C)[C@@H]1NC(=O)[C@@H]2CCCN2C(=O)[C@H](Cc2c[nH]c3ccc(F)cc23)NC(=O)[C@H](Cc2c[nH]c3ccc(F)cc23)NC(=O)CNC(=O)[C@H](CCCCN)NC(=O)CCSCc2cccc(c2)CSC[C@@H](C(N)=O)NC(=O)[C@]2(C)CCCN2C(=O)[C@H](Cc2ccc(O)cc2)NC1=O ([Mpa]KG[Trp(5-F)][Trp(5-F)]PT(Me)Y[αMeP]C-NH2; linker 1-10 via mXylylene) | 56 | 1.2 | 99.5 | 10.1 | 91 | 3.1 | 1.03 |  |  |  |  |  |  |  |  |  |  |
| C[C@H]1NC(=O)[C@H](CCCCN)NC(=O)CCSCc2cc(F)cc(c2)CSCCNC(=O)[C@]2(C)CCCN2C(=O)[C@H](Cc2ccc(O)cc2)NC(=O)[C@H](Cc2cnc[nH]2)NC(=O)[C@H](CC(=O)O)NC(=O)[C@H](Cc2c[nH]c3ccc(F)cc23)NC(=O)[C@H](Cc2c[nH]c3ccc(F)cc23)NC1=O (cyclo(DHY[αMeP][X3]K[dA][Trp(5-F)][Trp(5-F)])) | 96.5 | 91 | 96.6 | 1.5 | 20.1 | > 6 | > 6 |  |  |  |  |  |  |  |  |  |  |

Source: ChEMBL document CHEMBL4699634, “Series of Novel and Highly Potent Cyclic Peptide PCSK9 Inhibitors Derived from an mRNA Display Screen and Optimized via Structure-Based Design” (J Med Chem, 2020)
